Measured values reported in patent US20040110693A1, “Agent for treating diabetes mellitus” (priority 2001, published 2004).
Several values for one entry are separate records, joined by “and”; a condition that tells them apart may be missing. Equal entries are not always repeated.

Columns and labels:
normal persons = test: Side effects in normal persons after 50-75 g of sucrose instead of test breakfast; type: in vivo, human; settings: 100 mg
type II diabetics = test: Short-term experiments with alpha-glucosidase inhibitors and bulk materials: blood sugar increase after test breakfast; settings: for action compared with bulk material: levelling of blood sugar increase after eating; for Hypoglycemia, MG 100, mean value: mean of 6 cases
Procedure: After measurement of the fasting blood sugar in the morning, 20 type II diabetics received a test breakfast (75 g of white bread, 20 g of butter, 40 g of jam or, as a sugar-free variant, 75 g of white bread, 20 g of butter and 40 g of cheese). On the control days, before the test breakfast 75 ml of yoghurt were given, and on the test days the various bulk materials were given in 75 ml of yoghurt. […] After the test breakfast, the blood sugar values were measured at ½ to 1 hour intervals for 2-4 hours. Each short-term experiment was carried out two to three times with the individual subjects. The respective average values are indicated.
The basis for the evaluation is the graphic representation of the blood sugar values as curves. The increasing phase of the blood sugar lasting 1-2 hours is determined planimetrically and considered as a measure of the lower limit of glucose absorption. In the first hour after the test breakfast, under physical quasi-resting conditions the increase in the blood sugar curve ought to reflect the intestinal glucose absorption into the blood almost unadulteratedly on the morning of the experiment in the diabetic differently from in the healthy person. Beyond the first hour, even in most type II diabetics an insulin response commences more or less clearly which levels off the blood sugar increase, or conversely in any case leads to a corresponding underestimation of the glucose absorption. […] The planimetric evaluation of all curves is then extended until achieving the peak of the last curve. […] For practical reasons, we compare the increasing phases of the blood sugar curves under the various experimental conditions (control, after bulk material, in the later experiments also after alpha-glucosidase inhibitors) with one another and calculate from this the degree of hypoglycemia based on the control curve. […] The statistical evaluation, which is possible only in the short-term experiments on account of the amounts of data, is carried out using the student's t test in a paired comparison.
21 patients were investigated: 10 each received acarbose and miglitol, 1 patient first acarbose and then miglitol. The individual dose used was 25-100 mg.
Immediately before the test meals described above, the subjects received either a) 75 ml of yoghurt (control experiment) or b) bulk material in yoghurt (bulk curve) or c) a tablet of acarbose or miglitol and then 75 ml of yoghurt (alpha-GI curve) or d) this medicament 5 minutes before taking bulk material in yoghurt (bulk-plus alpha-GI curve). As described, the blood sugar values were determined before and for 3 hours after the test meal.

[1] = 50 mg on its own (acarbose 2 cases, miglitol 8 cases)

concomitant symptoms (type II diabetics; [1]) | concomitant symptoms (type II diabetics; 25 mg on its own (5 cases)) | patients with semiliquid stools as far as diarrhea (type II diabetics; on its own, short-term experiments) | SMILES | symptoms after 50-75 g of sucrose (normal persons) | Hypoglycemia (decrease in the blood sugar increase after a test breakfast), Alpha-GI (type II diabetics; AB 50 mg, individual patient) | Hypoglycemia (decrease in the blood sugar increase after a test breakfast), Alpha-GI (type II diabetics; AB 100 mg, individual patient) | action compared with bulk material (type II diabetics) | Hypoglycemia (decrease in the blood sugar increase after a test breakfast), Alpha-GI (type II diabetics; MG 25 mg, individual patient) | Hypoglycemia (decrease in the blood sugar increase after a test breakfast), Alpha-GI (type II diabetics; MG 50 mg, individual patient) | Hypoglycemia (decrease in the blood sugar increase after a test breakfast), Alpha-GI (type II diabetics; MG 100 mg, individual patient) | Hypoglycemia, MG 100 (type II diabetics; miglitol 100 mg on its own, individual patient) | Hypoglycemia, MG 100, mean value (type II diabetics; miglitol 100 mg on its own) [%] | Hypoglycemia, MG 100, mean value (type II diabetics; miglitol 100 mg on its own, listed as miglitol) [%]
no clear concomitant symptoms |  |  | CC1OC(OC2C(CO)OC(OC3C(CO)OC(O)C(O)C3O)C(O)C2O)C(O)C(O)C1NC1C=C(CO)[C@@H](O)[C@H](O)[C@H]1O (stereo partly shown) [AB, acarbose] | abdominal pain and diarrhea occurred | 42% and 50% | 41% and 63% (2×) and 56% and 65% and 6% and 55% and 39% and 58% and 59% | considerably stronger action than bulk material |  |  |  |  |  | 
no clear concomitant symptoms | no clear concomitant symptoms | 4 of 9 patients | OCCN1C[C@H](O)[C@@H](O)[C@H](O)[C@H]1CO [MG, miglitol] | abdominal pain and diarrhea occurred |  |  | considerably stronger action than bulk material | 27% and 47% and 12% and 53% and 49% and 24% | 33% and 40% and 37% and 62% (2×) and 25% and 59% and 71% | 24% and 60% and 80% and 59% and 32% and 66% and 75% and 34% and 73% | 66% and 75% and 34% and 80% and 59% and 32% | 57.7 | 58
